Experimental data reported in US20080096859A1, “Compositions and Methods for Treating Ophthalmic Diseases” (priority 2004, published 2008).
Structures can show the parent of a compound that is named as a salt.

SMILES: c1ccc(CCNC[C@@H]2CCN(CCc3c[nH]c4ccc(-n5cnnc5)cc34)C2)cc1 (as salt: oxalate) (hydrate or solvate)
- melting point: 189 to 190 °C

SMILES: c1ccc(CNC[C@@H]2CCN(CCc3c[nH]c4ccc(Cn5cncn5)cc34)C2)cc1 (as salt: oxalate)
- melting point: 154 to 156 °C
